Data published in patent publication US20040175768A1, “Methods of biosensing using fluorescent polymers and quencher-tether-ligand bioconjugates” (priority 2002, published 2004).

Tests used:
[1] = system: PNA-Capture; assay: Mismatch analysis with microsphere sensor loaded with PNA-based capture strand (FIG. 8); format: binding; conditions: competition with DNA-QTL for PNA-Cap; 40° C., total well volume 200 μL
Method: The approach used in this example involves the competition of quencher labeled target with target for a complementary capture strand on the surface of sensing microspheres.
FIG. 8 is a graph showing mismatch analysis with a microsphere sensor loaded with a PNA-based capture strand (denoted “PNA-Cap”) having a structure shown below. The experiments were performed at 40° C. with a total well volume of 200 μL.

[2] = target: T1, β-secretase enzyme (Homo sapiens, UniProt P56817); conditions: 30 minutes at CRT, Sensor YY, excitation 440 nm, emission 576 nm
Method: The resulting solution sensor (“Sensor YY”) was made at the beginning of each experiment by incubating a 200-fold dilution of the master stock of “Sensor SS” with BRPE in a ratio that would provide 250 fmol of the latter in 40 μL of the mixture. To 5 μL of a 300 nM solution of BSEC-3 in assay buffer was added 30 ng of β-secretase enzyme in 5 μL of assay buffer. BSEC-3 has a polypeptide structure as set forth above. After incubating the control and sample mixtures for 30 minutes at CRT, 40 μL of the doped solution sensor (Sensor YY) was added to each well. The plate was shaken inside the plate reader for 60 seconds and the wells were probed for fluorescence intensity by exciting the polymer at 440 nm and measuring the emission intensity at 576 nm using a 475 nm cut-off filter. […] This observed difference was a measure of enzyme activity.

[3] = target: T1, β-secretase enzyme; conditions: 30 minutes at CRT, Sensor SS, excitation 440 nm, emission 530 nm
Method: A QTL solution sensor (“Sensor SS”) was prepared by mixing together 56.5 nmol of Avidin (Biotin binding protein, BBP) and 848 nmol of biotinylated PPE polymer (1) in a total volume of 11.3 mL and incubating at CRT for 24 hours. The polymer and the BBP combine with each other through the biotin-avidin interaction to form stable entities. The solution sensor thus prepared was diluted appropriately with buffer at the beginning of each experiment. The structure of polymer (1) is shown below: [drawing 4]
To 5 μL of a 400 nM solution of BSEC-1 (structure shown below) in assay buffer in a 384-well plate was added 30 ng of β-secretase enzyme dissolved in 5 μL of assay buffer.
The mixture was made in triplicate and incubated for 30 minutes at CRT. The control wells contained only peptide and no enzyme. After incubation, a 100-fold dilution of the above solution sensor was added at 20 μL to each well. The plate was shaken inside the microplate reader and the wells were probed by exciting the polymer at 440 nm and measuring the emission intensity at 530 nm using a 475 nm cut-off filter. […] The difference in fluorescence was a measure of enzyme activity.

[4] = system: BSEC-1
[5] = system: BSEC-3

T1 sequence (P56817 46-501): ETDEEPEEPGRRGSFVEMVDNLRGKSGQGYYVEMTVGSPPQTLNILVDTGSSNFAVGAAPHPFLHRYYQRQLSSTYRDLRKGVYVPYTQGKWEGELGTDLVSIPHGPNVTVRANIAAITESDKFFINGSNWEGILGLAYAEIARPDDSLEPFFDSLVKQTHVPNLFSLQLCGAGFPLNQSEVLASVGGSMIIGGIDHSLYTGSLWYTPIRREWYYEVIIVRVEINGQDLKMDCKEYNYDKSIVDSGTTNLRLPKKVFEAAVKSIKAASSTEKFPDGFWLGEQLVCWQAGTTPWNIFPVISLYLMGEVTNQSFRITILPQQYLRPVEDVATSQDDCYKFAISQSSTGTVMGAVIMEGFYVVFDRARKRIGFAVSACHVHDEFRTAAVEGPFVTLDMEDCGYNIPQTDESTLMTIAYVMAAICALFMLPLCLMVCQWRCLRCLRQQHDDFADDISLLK

5′-TGCATATTTAATGGAATTTA-3′ (TGCATATTTAATGGAATTTA; listed as DNA, chemistry not fully specified; the letters are possibly those of the target site) [AA double mismatch target]
relative fluorescence with increasing amounts of target [1]: observed for all targets except

5′-TGCATTTTTAATGGTATTTA-3′ (TGCATTTTTAATGGTATTTA; listed as DNA, chemistry not fully specified; the letters are possibly those of the target site) [perfect complement target]
relative fluorescence with increasing amounts of target [1]: much higher

(AZO)-T-E-E-I-S-E-V-N-L-D-A-E-F-(K-Biotin)-OH [BSEC-3]
RFU, sample wells containing enzyme ([2]; 5 μL of 300 nM peptide + 30 ng β-secretase): 14,500±200 RFU
average RFU value, control wells ([2]; 5 μL of 300 nM peptide, no enzyme): 5,200±200 RFU

(QSY7)-T-E-E-O-S-E-V-N-L-D-A-E-F-(K-Biotin)-OH [BSEC-1]
average RFU value, sample wells containing enzyme ([3]; 5 μL of 400 nM peptide + 30 ng β-secretase): 8,350±200 RFU
average RFU value, control wells (only peptide and no enzyme) ([3]; 5 μL of 400 nM peptide, no enzyme): 5,400±200 RFU

β-secretase enzyme
average RFU (polymer emission at 530 nm, Sensor SS) after 30 min incubation of 400 nM BSEC-1 with 30 ng β-secretase; control wells with peptide only gave 5,400±200 [4]: 8350 ± 200 RFU
average RFU (emission at 576 nm, BRPE-doped Sensor YY) after 30 min incubation of 300 nM BSEC-3 with 30 ng β-secretase; control wells gave 5,200±200 [5]: 14500 ± 200 RFU
